Measurements as given in patent US20130143958A1, “DOSAGE UNIT COMPRISING A PROSTAGLANDIN ANALOG FOR TREATING CONSTIPATION” (priority 2001, published 2013).

Legend:
[1] = cited from earlier work; for effect on the intestine: administered in pharmacological doses
[2] = test system: volunteers; assay: Phase Ia single rising dose study, safety, tolerance and bowel movement frequency; type: in vivo, human
Experimental: (§1) The safety and tolerance of oral Compound A (13,14-dihydro-15-keto-16,16-difluoro-PGE1) was evaluated in 16 volunteers in a single-dose Phase I study (Phase Ia) at rising per-person doses of 6 μg, 12 μg, 24 μg, 48 μg, 72 μg, and 96 μg compared and in 24 volunteers in a multiple-dose Phase I study (Phase Ib) at rising per-person doses of 24 μg, 30 μg, and 36 μg of Compound A administered three times a day (TID) (i.e., total daily per person doses of 72 μg, 90 μg and 108 μg) for 6 days.
96 μg was the maximum tolerated single oral Compound A dose. […] These occurred in 13 of the 17 volunteers and all resolved. Volunteers receiving placebo experienced five AEs. Most AEs could be categorized as either responses or events commonly reported in Phase I clinical trials (such as headache and lightheadedness) or expected pharmacodynamic responses of Compound A (such as loose bowel movements, diarrhea and abdominal cramping).
Bowel movement frequency was assessed during the 24 hour period after dosing for each dose-level group. Bowel movements were experienced in the placebo and in all active dose groups. […] Compared to only three of twelve subjects experiencing bowel movements in the placebo group, all six subjects in the 96 μg Compound A group experienced bowel movements. Furthermore, the average number of bowel movements per subject in this Compound A group (1.5) was three times greater than the average number of bowel movements per subject in the placebo group (0.5).

[3] = test system: volunteers; assay: Phase Ib multiple rising dose study (TID for 6 days), safety, tolerance and bowel movement frequency; type: in vivo, human; details: for total bowel movements in group: placebo 31
Experimental: as §1
Compound A was determined to be optimal when administered at the 24 μg dose TID and determined to be safe and tolerable up to 36 μg when administered TID for at least 6 days.
Bowel movement frequency was assessed in this study as well. […] A total of 193 bowel movements were experienced in this study. Of these, 31 occurred in the placebo group, 70 in the 24 μg group, 51 in the 30 μg group and 41 in the 36 μg group.

[4] = test system: patients; assay: Phase II dosage study in constipation, 21 days; type: in vivo, human; details: for daily average number of spontaneous bowel movements vs placebo: Week 1 and Week 2; for stool consistency: all post-baseline time points
Experimental: All randomized patients who took at least one dose of double-blind study medication constituted the safety evaluable (SE) population. These patients were included in the demographic data, baseline characteristic data and safety analysis. For efficacy, the same data set was used and is referred to as the intent-to-treat (ITT) population. […] Key efficacy analyses were also performed on the per-protocol (PP) population, which excluded all data for the affected weeks for protocol violators. Patients whose treatments were adjusted were analyzed in their original treatment group (i.e., as randomized).
Eligible patients were treated with either placebo or total daily doses of 24 μg, 48 μg or 72 μg of Compound A for 21 days. One placebo or Compound A capsule was taken 3 times each day (AM, Noon, and PM). Compound A was administered as 24 μg oral capsules. Patients assigned to receive the total daily 24 μg Compound A dose took one Compound A capsule in the AM and one matching placebo capsule both at Noon and in the PM; patients assigned to receive the total daily 48 μg Compound A dose took one Compound A capsule in both the AM and PM and one matching placebo capsule at Noon; patients assigned to receive the total daily 72 μg Compound A dose took one Compound A capsule in the AM, at Noon, and in the PM.

Compound: CCCCC[C@H](O)/C=C/[C@@H]1[C@@H](C/C=C\CCCC(=O)O)[C@@H](O)C[C@H]1O [PGF2α]
- effect on the intestine [1]: stimulate intestinal transit and to cause diarrhea

Compound: CCCCC[C@H](O)/C=C/[C@H]1[C@H](O)CC(=O)[C@@H]1C/C=C\CCCC(=O)O [PGE2]
- effect on the intestine [1]: stimulate intestinal transit and to cause diarrhea

Compound: CCCCC(C)(O)C/C=C/[C@H]1[C@H](O)CC(=O)[C@@H]1CCCCCCC(=O)OC (mixture of isomers) [misoprostol]
- most commonly reported side effect ([1]; in vivo): diarrhea

Compound: CCCCC(F)(F)C(=O)CCC1C(O)CC(=O)C1CCCCCCC(=O)O (centres unmarked) [Compound A, 13,14-dihydro-15-keto-16,16-difluoro-PGE1]
- average number of bowel movements per subject relative to placebo group ([2]; 96 μg single dose, 24 hour period after dosing): three
- average number of bowel movements per subject ([2]; 96 μg single dose, 24 hour period after dosing, placebo 0.5): 1.5
- subjects experiencing bowel movements ([2]; 96 μg single dose, 24 hour period after dosing, placebo three of twelve): all six
- bowel movements compared to placebo ([2]; 24 hour period after dosing): trend for increased bowel movements
- total number of AEs ([2]; in vivo): 49
- volunteers with AEs ([2]; in vivo): 13 of the 17
- dose-limiting toxicity ([2]; in vivo, po): nausea
- maximum tolerated single per-person dose ([2]; single oral dose): 96 µg
- total bowel movements in group ([3]; 24 μg group TID): 70
- total bowel movements in group ([3]; 30 μg group TID): 51
- maximum tolerated multiple dose as total daily dose ([3]; 36 μg TID): 108 µg
- total bowel movements in group ([3]; 36 μg group TID): 41
- best tolerated effective dose ([3]; TID, healthy volunteers): 24 µg
- optimal dose ([3]; administered TID): 24 µg
- central nervous system or physical abnormalities ([3]; in vivo): no central nervous system or physical abnormalities observed
- main dose limiting side effect ([3]; in vivo): nausea
- safe and tolerable dose ([3]; in vivo): up to 36 μg
- vital signs and ECG measurements ([3]; in vivo): normal
- maximum tolerated multiple per-person dose ([3]; oral, taken TID, 6 days): 36 µg
- proportion of patients who had a spontaneous bowel movement on Day 1 ([4]; 48 μg total daily dose): statistically significant increase
- daily average number of spontaneous bowel movements vs placebo ([4]; 48 μg total daily dose): statistically significant increases
- constipation severity ([4]; 48 μg total daily dose, Week 3): Statistically significant improvements
- stool consistency ([4]; 48 μg total daily dose): Statistically significant improvements
- proportion of patients who had a spontaneous bowel movement on Day 1 ([4]; 72 μg total daily dose): statistically significant increase
- daily average number of spontaneous bowel movements vs placebo ([4]; 72 μg total daily dose): statistically significant increases
- constipation severity ([4]; 72 μg total daily dose, Weeks 2 and 3): Statistically significant improvements
- stool consistency ([4]; 72 μg total daily dose): Statistically significant improvements
- minimum effective dose ([4]; based on statistical analyses): 48 μg per day
- overall efficacy, relief of constipation ([4]; doses as low as 24 μg per day): tended to relieve constipation
